Several values for one entry are separate records, joined by “and”; a condition that tells them apart may be missing. Identical values can stand only once. Like-named read-outs stand apart in the source and are kept apart here.
What was measured:
[1] = system: prostate; assay: Androgenic activity: prostate weight in male rats; type: in vivo, rat
Source text: (§1) Male Sprague-Dawley rats were purchased from Harlan Biosciences (Indianapolis, Ind.). […] One day before the initiation of drug treatment, groups 4 through 6 and groups 7 through 9 received unilateral or bilateral orchidectomy, respectively, via a midline scrotal incision. […] All drugs given to animals were freshly prepared as solutions in polyethylene glycol 300 (PEG 300). Groups 4 and 7 received treatment with vehicle alone (i.e., PEG 300). […] The ventral prostates, seminal vesicles, and levator ani muscle were removed and weighed. Osmotic pumps were also removed from animals to check for correct pump operation. […] Statistical analyses of parameters from complete blood count or serum chemical profiling, wherever applicable, were performed by single-factor ANOVA with the alpha value set a priori at p<0.05.

[2] = system: seminal vesicles; assay: Androgenic activity: seminal vesicle weight in male rats; type: in vivo, rat; details: for ED50 / Emax (% of Intact Control): castrated rats, dose response 0.1-1.0 mg/day
Source text: as §1

[3] = Adverse pharmacologic effects in rats of varying hormonal status; type: in vivo, rat; details: male rats, 0.5 mg/day, 14 days
[4] = system: MHC II b mRNA; assay: MHC IIb mRNA expression by RT-PCR in masseter muscle of intact female rats; type: in vivo, rat
Procedure: Rat muscle tissue was harvested in 5 volumes of RNA later solution (Ambion, cat.# 7020) and stored at 4° C. until used for RNA isolation. Total RNA was isolated in the FastPrep FP120 instrument (Qbiogene) using RNAqueous-4PCR kit (Ambion, cat # 1914) in combination with FastRNA green tubes (Qbiogene, cat.# 6040-600) at settings for time at 45 sec and speed at 6.5.1 ug of total RNA was used for reverse transcription using Retroscript kit (Ambion, cat# 1710). The mixture was incubated at 42° C. for 60 min, followed by 10 min at 92° C., and then chilled on ice and used in PCR reaction.
Relatively quantitative RT-PCR was used to analyze expression of MHC mRNA in rat musculus masseter (MM) and levator ani (LA). As an internal standard 18S ribosomal RNA was used (QuantumRNA classic 18S Internal Standard, Ambion, cat.# 1716). Linear range of PCR reaction for all primers as well as optimal ratio of 18S primers to competitors to achieve the same level of amplification as the genes of interest was determined.
Primers were obtained from IDT based on the recently published design (Wright et al., J. Appl. Phys. 1997;83:1389), with the following sequence: 5′[…]3′. […]
5 units of Taq DNA polymerase (Roche, cat# 1146165), 200 μM of each dNTP (Invitrogen, cat.#R725-01), 0.2 μM each MHC primer (IDT), 1 μl of cDNA from reverse transcription reaction and 4 μl of 18S primers: competitors mixture were used in 50 μl PCR reaction. […] PCR products were analyzed by agarose gel electrophoresis [20-μl aliquots of a 50-μl PCR reaction loaded on a 1.5% agarose gel (in 1× Tris-Acetate-EDTA buffer) containing 0.2 μg/ml ethidium bromide] to visualize the PCR products. […] Pictures were scanned and the volume of the optical density (OD) of a DNA band was determined by the Image Quant software (Molecular Dynamics), and the background was subtracted (so local background was directly proportional to the amount of DNA over a wide range). […] The content of each experimental group MHC gene was calculated as a percentage of the MHC value in the control group (Table 2).

[5] = system: MHC IIb mRNA; assay: MHC IIb mRNA expression in masseter and gastrocnemius muscle of intact male rats; details: TP 5 mg/kg/day, Compound V 1 mg/kg/day
[6] = system: levator ani muscle; assay: Anabolic activity: levator ani muscle weight in male rats; type: in vivo, rat
Source text: as §1

[7] = system: FSH, LH and testosterone; assay: Plasma concentrations of FSH, LH and testosterone in treated male rats; type: in vivo, rat; details: data not shown
[8] = system: levator ani; assay: Levator ani evaluation in androgen-treated intact female rats; type: in vivo, rat; details: 14 and 28 days treatment
Source text: In these same rats, the levator ani was dissected and evaluated for the expression pattern of MHC family members. […] Physiol. 75(5): 2337-2340, 1993].

[9] = prostate, castrated rats, dose response 0.1-1.0 mg/day
[10] = seminal vesicle, relative to TP
[11] = levator ani muscle, castrated rats, dose response 0.1-1.0 mg/day
[12] = levator ani muscle, relative to TP

CC(=O)Nc1ccc(OC[C@](C)(O)C(=O)Nc2ccc([N+](=O)[O-])c(C(F)(F)F)c2)cc1 [Compound V]
Agonist character in prostate ([1]; male rats, from organ weights): partial agonist | Agonist character in seminal vesicles ([2]; male rats, from organ weights): partial agonist | ED50 ([2]; seminal vesicle): 0.55 ± 0.02 mg/day | Emax (% of Intact Control) ([2]; seminal vesicle): 28.5 ± 0.8 % of Intact Control | Adverse pharmacologic effects [3]: No adverse pharmacologic effects were observed | MHC IIb expression, % of untreated control [4]: 124% and 124.5% | MHC type IIb transcription, % of untreated control ([5]; gastrocnemius muscle): 162(±54) % | MHC type IIb transcription, % of untreated control ([5]; masseter muscle): 117(±13) % | Agonist character in levator ani muscle ([6]; male rats, from organ weights): full agonist | Changes in plasma concentrations of FSH, LH and testosterone [7]: absence of any significant changes | Presence of levator ani muscle after treatment [8]: had a muscle present in the location expected for the levator ani

CCC(=O)O[C@H]1CC[C@H]2[C@@H]3CCC4=CC(=O)CC[C@]4(C)[C@H]3CC[C@]12C [TP, testosterone propionate, reference compound]
ED50 [1, 9]: 0.13 ± 0.03 mg/day | Emax (% of Intact Control) [1, 9]: 120.6 ± 13.4 % of Intact Control | Relative Afficacy ([1]; prostate, relative to TP): 1.00 | Relative Potency ([1]; prostate, relative to TP): 1.00 | ED50 ([2]; seminal vesicle): 0.12 ± 0.02 mg/day | Emax (% of Intact Control) ([2]; seminal vesicle): 70.0 ± 18.8 % of Intact Control | Relative Afficacy [2, 10]: 1.00 | Relative Potency [2, 10]: 1.00 | MHC IIb expression, % of untreated control [4]: 141.5% | MHC IIb expression, % of untreated control ([4]; listed as testosterone propionate): 142% | MHC type IIb transcription, % of untreated control ([5]; gastrocnemius muscle): 139(±47) % | MHC type IIb transcription, % of untreated control ([5]; masseter muscle): 120(±14) % | ED50 [6, 11]: 0.15 ± 0.03 mg/day | Emax (% of Intact Control) [6, 11]: 104.2 ± 10.1 % of Intact Control | Relative Afficacy [6, 12]: 1.00 | Relative Potency [6, 12]: 1.00 | Presence of levator ani muscle after treatment [8]: had a muscle present in the location expected for the levator ani

Source: US7547728B2, “Treating muscle wasting with selective androgen receptor modulators” (priority 2001, dated 2009)
